The record followed here is article PMC3166973 (Journal of structural biology, 2011).

Residue numbers refer to the chain shown, from its start. Names may count otherwise.

In one data set the target is pcDHFR (Pneumocystis carinii, UniProt P16184). In kind it is biochemical. The following applies: read-out: Km NADPH.
The next data set concerns the target T1, hDHFR (Homo sapiens, UniProt P00374).
T1 sequence (P00374 1-187): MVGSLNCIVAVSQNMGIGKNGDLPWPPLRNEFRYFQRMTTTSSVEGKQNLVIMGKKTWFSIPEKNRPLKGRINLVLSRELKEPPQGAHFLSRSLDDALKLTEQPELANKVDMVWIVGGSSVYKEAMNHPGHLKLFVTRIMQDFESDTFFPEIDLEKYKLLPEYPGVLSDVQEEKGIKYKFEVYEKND
In words: Standard DHFR assay, kinetic constants. The settings on record: read-out: Km NADPH; wild type hDHFR. In kind it is biochemical.

The target of a further data set is T2, hDHFR Q35S (Homo sapiens, UniProt P00374, Q36S).
T2 sequence (P00374 1-187 Q36S): T1 sequence (P00374 1-187) with Q36S
In words: Standard DHFR assay, kinetic constants. In kind it is biochemical. The settings on record: read-out: Km NADPH.

The target in a further data set is T3, hDHFR N64S (Homo sapiens, UniProt P00374, N65S).
T3 sequence (P00374 1-187 N65S): T1 sequence (P00374 1-187) with N65S
Nature of the data set: Standard DHFR assay, kinetic constants. In kind it is biochemical. The following applies: read-out: Km NADPH.

In a further data set the target is T4, hDHFR Q35S/N64S (Homo sapiens, UniProt P00374, N65S/Q36S).
T4 sequence (P00374 1-187 Q36S/N65S): T1 sequence (P00374 1-187) with Q36S, N65S
Nature of the data set: Standard DHFR assay, kinetic constants. In kind it is biochemical. The following applies: read-out: Km NADPH.

The target in another data set is T5, hDHFR Q35K (Homo sapiens, UniProt P00374, Q36K).
T5 sequence (P00374 1-187 Q36K): T1 sequence (P00374 1-187) with Q36K
In words: Standard DHFR assay, kinetic constants. The settings on record: read-out: Km NADPH. In kind it is biochemical.

A further data set has as its target T6, hDHFR N64F (Homo sapiens, UniProt P00374, N65F).
T6 sequence (P00374 1-187 N65F): T1 sequence (P00374 1-187) with N65F
In words: Standard DHFR assay, kinetic constants. The settings on record: read-out: Km NADPH. In kind it is biochemical.

For the next data set, the target named is T7, hDHFR Q35K/N64F (Homo sapiens, UniProt P00374, N65F/Q36K).
T7 sequence (P00374 1-187 Q36K/N65F): T1 sequence (P00374 1-187) with Q36K, N65F
In words: Standard DHFR assay, kinetic constants. The following applies: read-out: Km NADPH. In kind it is biochemical.

Another data set has as its target T8, hDHFR Q35K/N64S (Homo sapiens, UniProt P00374, N65S/Q36K).
T8 sequence (P00374 1-187 Q36K/N65S): T1 sequence (P00374 1-187) with Q36K, N65S
In words: Standard DHFR assay, kinetic constants. The following applies: read-out: Km NADPH. It is filed as biochemical.

The target of a further data set is T9, hDHFR Q35S/N64F (Homo sapiens, UniProt P00374, N65F/Q36S).
T9 sequence (P00374 1-187 Q36S/N65F): T1 sequence (P00374 1-187) with Q36S, N65F
Nature of the data set: Standard DHFR assay, kinetic constants. The settings on record: read-out: Km NADPH. It is filed as biochemical.

In a further data set the target is T10, pjDHFR (Pneumocystis jirovecii, UniProt Q9UUP5).
T10 sequence (Q9UUP5 1-206): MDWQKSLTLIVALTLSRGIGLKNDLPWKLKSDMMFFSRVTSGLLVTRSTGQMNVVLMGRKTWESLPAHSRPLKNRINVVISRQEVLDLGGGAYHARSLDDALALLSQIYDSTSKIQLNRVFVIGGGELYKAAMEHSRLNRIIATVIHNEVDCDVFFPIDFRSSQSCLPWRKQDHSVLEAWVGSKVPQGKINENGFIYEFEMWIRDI
Nature of the data set: Standard DHFR assay. The following applies: read-out: Km NADPH, substrate at saturating concentration.

Substrate in data set [1]: Nc1nc2c(c(=O)[nH]1)N=C(CNc1ccc(C(=O)N[C@@H](CCC(=O)O)C(=O)O)cc1)CN2
Nature of the data set: purified protein, by the assay type. The following applies: pH 7.4.

Sequence of pcDHFR (P16184 whole entry): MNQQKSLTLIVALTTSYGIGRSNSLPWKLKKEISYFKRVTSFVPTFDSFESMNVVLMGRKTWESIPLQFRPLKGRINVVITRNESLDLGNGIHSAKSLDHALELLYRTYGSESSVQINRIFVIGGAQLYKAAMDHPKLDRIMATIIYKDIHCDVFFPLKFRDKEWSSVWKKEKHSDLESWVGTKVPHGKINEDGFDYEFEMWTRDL

Consider `NC(=O)C1=CN([C@@H]2O[C@H](COP(=O)(O)OP(=O)(O)OC[C@H]3O[C@@H](n4cnc5c(N)ncnc54)[C@H](OP(=O)(O)O)[C@@H]3O)[C@@H](O)[C@H]2O)C=CC1` [NADPH], for which the Km on pcDHFR was 16 ± 2 µM; at hDHFR it was 4.5 ± 1.2 µM; on hDHFR Q35S, 3.8 ± 1.4 µM; on hDHFR N64S, 6.3 µM; on hDHFR Q35S/N64S, 5.3 ± 1.5 µM; on hDHFR Q35K, 12.5 µM. In addition, the Km on hDHFR N64F worked out at 7.5 ± 3.1 µM; on hDHFR Q35K/N64F, 5.7 ± 1.1 µM; on hDHFR Q35K/N64S, 6.6 ± 1.8 µM; on hDHFR Q35S/N64F it was 5.6 ± 0.5 µM; on pjDHFR it was 19 ± 1 µM.

B1: pjDHFR (Pneumocystis jirovecii) (protein)
chain: T10 sequence (Q9UUP5 1-206)
As for B1, in data set [1] (other: pjDHFR, cofactor at saturating concentration), the Km is given as 2.2 ± 0.2^1 (n=13) μM.

B2: hDHFR Q35K/N64S (Homo sapiens; N65S/Q36K) (protein)
chain: T1 sequence (P00374 1-187) with Q36K, N65S
Regarding B2, the Km in data set [1] (other: hDHFR Q35K/N64S, 37.0 °C) is recorded as 0.7 ± 0.2 (n=6) μM.

B3: hDHFR Q35S/N64F (Homo sapiens; N65F/Q36S) (protein)
chain: T1 sequence (P00374 1-187) with Q36S, N65F
For the molecule B3, the Km in [1] (other: hDHFR Q35S/N64F, 37.0 °C) is reported as 0.7 ± 0.2 (n=5) μM.

B4: hDHFR Q35S (Homo sapiens; Q36S) (protein)
chain: T1 sequence (P00374 1-187) with Q36S
As for B4, the Km in data set [1] (other: hDHFR Q35S, 37.0 °C) was 0.7 ± 0.2 (n=4) μM.

B5: hDHFR (Homo sapiens) (protein)
chain: T1 sequence (P00374 1-187)
As to B5, the Km in data set [1] (other: wild type hDHFR, 37.0 °C) is 0.7 ± 0.1 (n=8) μM.

B6: hDHFR N64S (Homo sapiens; N65S) (protein)
chain: T1 sequence (P00374 1-187) with N65S
As for B6, the Km in data set [1] (other: hDHFR N64S, 37.0 °C) is on record as 0.9 ± 0.3 (n=3) μM.
